Like-named read-outs stand apart in the source and are kept apart here.
How the values were obtained:
[1] = target: T1, Drosophila octopamine receptor (Drosophila melanogaster, UniProt P22270); assay: [3H]yohimbine competition displacement binding to membranes of transfected CHO-K1 cells
T1 construct: membranes or whole cells
T1 sequence (P22270 27-601): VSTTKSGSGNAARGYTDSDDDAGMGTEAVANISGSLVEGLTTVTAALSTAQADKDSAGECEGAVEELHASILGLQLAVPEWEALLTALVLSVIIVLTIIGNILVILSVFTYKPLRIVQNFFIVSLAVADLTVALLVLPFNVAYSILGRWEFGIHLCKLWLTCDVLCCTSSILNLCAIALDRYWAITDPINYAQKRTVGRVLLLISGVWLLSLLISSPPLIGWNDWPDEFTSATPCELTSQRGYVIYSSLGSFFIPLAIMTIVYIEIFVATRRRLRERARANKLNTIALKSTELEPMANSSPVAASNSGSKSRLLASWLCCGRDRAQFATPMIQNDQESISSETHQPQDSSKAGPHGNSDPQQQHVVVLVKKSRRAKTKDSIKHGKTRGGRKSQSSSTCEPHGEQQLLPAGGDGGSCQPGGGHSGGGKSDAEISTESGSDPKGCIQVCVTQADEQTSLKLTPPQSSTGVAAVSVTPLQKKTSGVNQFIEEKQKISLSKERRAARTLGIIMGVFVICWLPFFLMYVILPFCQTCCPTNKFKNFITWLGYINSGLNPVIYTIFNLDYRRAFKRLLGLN
Excerpt: (§1) In a binding assay provided herein, octopamine receptor genes isolated from a specific DNA library are inserted into a plasmid expression vector and used to transfect a Chinese hamster […] cell called CHO-K1 cells. These cells stably integrate the foreign DNA into the genome. Cells that express the insect octopamine receptor and process receptor into the mammalian cell membrane are cloned, expanded and frozen down for further use as membrane preparations in a ligand binding assay. […] After the incubations are terminated, the reaction mixture containing labeled ligand bound to receptor membranes is calculated by measuring label.
(§2) Cell membranes from transfected cells were prepared as previously described (F.-Z. Chung et al., J. Bol. Chem. 263:4052-4055 (1988); C. M. Fraser et al., Proc. Natl. Acad. Sci. USA 85:5478-5482 (1988), C. M. Fraser et al., J. Biol. Chem. 264:11754-11761 (1989), C. M. Fraser et al., Proc. Nat;. Acad. Sci. USA 85:5478-5482 (1989)).
Membrane bound octopamine receptors (20 μg of protein)
concentrations of the indicated agonists (0.1 μM to 2 mM) or
antagonists (10 nM to 200 μM). Incubations were performed at 37.degree
C. for 20 min in a final volume of 250 μl and terminated by filtration
over Whatman GF/C glass fiber filters. Experiments were repeated three
times in triplicate, and the average inhibition constants (± SD) were
caluclated using the LIGAND program of Munson and Rodbard (1980).

[2] = target: T1, Drosophila octopamine receptor; assay: Attenuation of forskolin-stimulated cAMP in CHO-K1 cells expressing the Drosophila octopamine receptor; type: cell-based
Method: Transfected cells (3×10^5 cells per dish) were washed once with PBS and incubated in PBS containing 1 mM 3-isobutyl-1-methylxanthine (Sigma) at 37° C. for 20 min. Agonists, at the indicated final concentrations, were added to the cultures along with 10 μM forskolin (Sigma), and cultures were incubated at 37° C. for an additional 20 min. Incubations were terminated by the addition of 6% trichloroacetic acid. Trichloroacetic acid extracts were extracted four times with distilled water-saturated ether, and cMAP concentrations were determined using a cAMP radioimmunoassay kit (New England Nuclear). Data are expressed as percent forskolin-stimulated cAMP production. In the indicated experiments, cell cultures were incubated with Bordetella pertussis islet activating protein (200 ng/ml; list biological lab) at 37° C. for 18 hr in normal culture medium prior to the assay of cAMP. Solid and open squares represent data obtained with octopamine in transfected and control cells, respectively. Solid circles represent data with epinephrine in transfected cells. […] Data represent the average ±SEM of at least three separate experiments performed in duplicate.
(§3) Another aspect of the present invention relates to another drug screening method that identifies new compounds with biogenic amine (agonists) or antagonist activity for biogenic receptors by measuring adenylate cyclase concentrations in transfected CHO-K1 cells expressing octopamine receptors. In one embodiment, potential drugs are tested for their ability to attenuate forskolin-stimulated adenylate cyclase activity. Forskolin is added to control or octopamine receptor transfected CHO-K1 cells that stimulates increased intracellular cAMP levels in transfected cells over basal CHO-K1 levels. In the presence of forskolin, known concentrations of octopamine are added and the attenuation of forskolin stimulated cyclase AMP is calculated. A potential antagonist is determined by the competitive reversal of octopamine mediated attenuation of forskolin stimulated cyclic AMP accumulation when the drug is added to the assayed transfected cells.
Because of the pharmacological and structural similarities of the Drosophila receptor to mammalian […] receptors, the ability of octopamine to attenuate forskolin-stimulated adenylate cyclase activity was tested.

control CHO-K1 cells = assay: Attenuation of forskolin-stimulated cAMP in control CHO-K1 cells; type: cell-based, Chinese hamster; settings: 10 μM forskolin (FIG. 4)
Method: (§4) Transfected cells (3×10^5 cells per dish) were washed once with PBS and incubated in PBS containing 1 mM 3-isobutyl-1-methylxanthine (Sigma) at 37° C. for 20 min. Agonists, at the indicated final concentrations, were added to the cultures along with 10 μM forskolin (Sigma), and cultures were incubated at 37° C. for an additional 20 min. Incubations were terminated by the addition of 6% trichloroacetic acid. Trichloroacetic acid extracts were extracted four times with distilled water-saturated ether, and cMAP concentrations were determined using a cAMP radioimmunoassay kit (New England Nuclear). Data are expressed as percent forskolin-stimulated cAMP production. […]
as §3, with “In one embodiment, potential drugs are tested for their ability to attenuate forskolin-stimulated adenylate cyclase activity. Forskolin is added to control or octopamine receptor transfected CHO-K1 cells that stimulates increased intracellular cAMP levels in transfected cells over basal CHO-K1 levels.” left out, “cells. […]” for “cells.”

Octampamine1 = settings: locust neuromuscular preparation; data from Evans (1981/1982); cited from earlier work
Octapamine2 = settings: locust neuromuscular preparation; data from Evans (1981/1982); cited from earlier work
Octopamine20 = settings: locust neuromuscular preparation; data from Evans (1981/1982); cited from earlier work
[3] = target: T1, Drosophila octopamine receptor; assay: [3H]yohimbine saturation binding to membranes of transfected CHO-K1 cells
Excerpt: as §1, §2

[4] = test system: control, untransfected CHO-K1 cells; assay: [3H]yohimbine binding to membranes of control, untransfected CHO-K1 cells; parameters: species or system Chinese hamster; settings: untransfected CHO-K1 cell membranes
Excerpt: as §1, §2

adenylate cyclase = assay: Forskolin stimulation of intracellular cAMP in control or transfected CHO-K1 cells; settings: Cricetulus griseus, CHO-K1, 20 min, read-out: increase in intracellular cAMP levels over basal values
Method: as §4
as §3, with “In one embodiment, potential drugs are tested for their ability to attenuate forskolin-stimulated adenylate cyclase activity. Forskolin is added to control or octopamine receptor transfected CHO-K1 cells that stimulates increased intracellular cAMP levels in transfected cells over basal CHO-K1 levels.” left out, “cells. […]” for “cells.”

[5] = displacement of 6 nM [3H]yohimbine, 37° C., 20 min, average ± SD, three times in triplicate, read-out: K1

## NCC(O)c1ccc(O)cc1 (racemic) [Octopamine(±), Octopamine]
[1]; read-out: Ki
  Ki: 29 ± 6 µM
[2]; CHO-K1, 20 min, 100 μM octopamine plus 10 μM forskolin, transfected cells, read-out: cAMP levels, % of those seen with forskolin alone
  activity at 100 µM: 46%
[2]; transfected cells pretreated with pertussis toxin 200 ng/ml, 18 hr
  ability to attenuate forskolin-stimulated cAMP levels after Bordetella pertussis islet activating protein: abolished
[2]; transfected cells, 10 μM forskolin (FIG. 4)
  attenuation of forskolin-stimulated cAMP levels: dose-dependent attenuation of forskolin-stimulated cAMP levels
Control CHO-K1 cells
  attenuation of forskolin-stimulated cAMP levels: not observed in control cells

## CCN(CC)CCNC(=O)c1cc(Cl)c(N)cc1OC [Metoclopramide]
[1]; read-out: K1
  Ki: 4.6 ± 1.4 µM
Octampamine1
  EC50, Octampamine1: No effect-10^-6
Octapamine2
  EC50: 1 µM
Octopamine20
  EC50: 9.5 µM

## CN(C)CCCN1c2ccccc2Sc2ccc(Cl)cc21 [Chlorpromazine]
[1]
  Ki: 0.18 ± 0.06 µM
Octampamine1
  EC50: 0.026 µM

## COC(=O)[C@@H]1[C@H]2C[C@H]3c4[nH]c5ccccc5c4CCN3C[C@@H]2CC[C@@H]1O [[^3 H]yohimbine]
[3]
  Kd: 0.0062 µM
[3]; transfected cell membranes
  Bmax: 1.75 pmol of receptor per mg of membrane protein
[4]
  specific radioligand binding: No specific radioligand binding was observed

## CNCC(O)c1ccc(O)cc1 (racemic) [Synephrine(±), Synephrine]
[1]
  Ki: 10.8 ± 2.5 µM

## CC(C)NCC(O)c1ccc(O)c(O)c1 (stereo not drawn) [Isoproterenol(-), Isoproterenol]
[1]; [5]
  Ki: > 1000 µM
[1]; read-out: Ki
  Ki: > 1000 µM

## NCCc1ccc(O)c(O)c1 [Dopamine]
[1]; [5]
  Ki: > 1000 µM
[1]; read-out: Ki
  Ki: > 1000 µM

## Clc1cccc(Cl)c1N=C1NCCN1 [Clonidine]
[1]
  Ki: 21 ± 7 µM
Octampamine1
  EC50: 0.00068 µM
Octapamine2
  EC50: 6.4 µM

## Cc1ccc(N(CC2=NCCN2)c2cccc(O)c2)cc1 [Phentolamine]
[1]; read-out: K1
  Ki: 2.2 ± 0.7 µM
Octampamine1
  EC50: 0.0019 µM

## NCCc1c[nH]c2ccc(O)cc12 [Serotonin]
[1]
  Ki: 75 ± 18 µM

## C=C[C@@]1(C)CC(=O)[C@]2(O)[C@@]3(C)[C@@H](O)CCC(C)(C)[C@@H]3[C@H](O)[C@H](OC(C)=O)[C@@]2(C)O1 [forskolin]
Adenylate cyclase
  fold induction at 10 µM: 35

## COC(=O)[C@@H]1[C@H]2C[C@H]3c4[nH]c5ccccc5c4CCN3C[C@@H]2CC[C@@H]1O [Yohimbine]
[2]; transfected cells, 10 μM yohimbine (FIG. 4)
  antagonism of octopamine-mediated attenuation of forskolin stimulated cAMP accumulation: competitively antagonized
Octampamine1
  EC50: 0.28 µM

## CNC[C@H](O)c1ccc(O)c(O)c1 [Epinephrine(-), Epinephrine]
[1]
  Ki: 139 ± 41 µM
[2]
  attenuation of forskolin-stimulated cAMP levels: no effect on forskolin-stimulated cAMP levels
Control CHO-K1 cells
  attenuation of forskolin-stimulated cAMP levels: no effect on forskolin-stimulated cAMP levels

— patent US5474898A, “Octopamine receptor” (The United States of America as represented by the …, priority 1994, dated 1995)
